From paper PMC12888871, “Population pharmacokinetics of caspofungin in critically ill Chinese children: a prospective observational study” (Antimicrobial Agents and Chemotherapy, 2025)
Like-named read-outs stand apart in the source and are kept apart here.

How the values were obtained:
[1] = Population pharmacokinetic analysis of total plasma caspofungin in PICU patients (final two-compartment model, NONMEM, n = 29, 138 samples); type: in vivo, human (critically ill Chinese children); settings: for AUCss,24h, range / AUC(0-t): Bayesian posterior estimates; for AUC(0-t): plasma, iv, read-out: AUCss,24h, median
Procedure: (§1) A prospective clinical study was conducted among pediatrics in PICU from Children’s Hospital of Fudan University from 1 November 2022 to 30 December 2024. Children aged 3 months to 18 years who were admitted to PICU and received caspofungin therapy were eligible for inclusion. The study population encompassed critically ill children, including but not limited to those with liver insufficiency, hypoproteinemia, ECMO treatment, continuous renal replacement therapy (CRRT), or sepsis. Eligible subjects were administered a once-daily, 1-h intravenous infusion of caspofungin, following a body surface area (BSA)-based dosage regimen: a loading dose (LD) of 70 mg/m² (not to exceed 70 mg) on the first day, followed by 50 mg/m² (not exceed 70 mg) for maintenance dose (MD). BSA was calculated using the Mosteller formula: […] ([14]). All participants were provided written consent prior to participating in the study (US Clinical Trials, NCT04961593). Demographic and baseline clinical laboratory data were collected from the medical records, including age, sex, body weight, height, BSA, liver function, renal function, and various biomarkers reflecting immune system status. Information on bacterial cultures was also collected from microbiological laboratory reports. The biochemical measurements were derived from the most recent clinical laboratory results available within 7 days prior to the first caspofungin administration, reflecting the patient’s baseline physiological status.
Total caspofungin plasma concentrations were quantified using a liquid chromatography tandem mass spectrometry (LC-MS/MS) method. Blood samples were collected with EDTA-K2 as anticoagulant, and plasma was obtained by centrifugation at 4,000 g for 5 min and stored at −80°C until analysis, which would be performed within 30 days. The analysis was performed using the LC-40AD chromatographic system (Shimazu, Tokyo, Japan) combined with a 6500+ Triple Quad mass spectrometry system (AB Sciex, Framingham, USA). The separation is achieved on a Kinetex C18 column (2.1 × 50 mm, 2.6 μm) using a mobile phase composed of buffer (0.1% [vol/vol] formic acid and 5 mM ammonium acetate) and methanol (0.1% [vol/vol] formic acid). A volume of 40 μL of each plasma sample was precipitated with 260 μL of methanol with 0.4% formic acid. After centrifugation, 150 μL of the supernatants was mixed with 150 μL of water, and a volume of 1 μL of mixture was injected into the chromatographic system. The calibration range of caspofungin was linear over the range of 0.05 to 50 μg/mL with a lower limit of quantification (LLOQ) of 0.05 μg/mL. The samples with concentration that exceeded the upper limit were diluted into half by using blank plasma sample. All the analysis run met the requirement of M10 guideline for bioanalytical method validation and study sample analysis ([15]).
(§2) This study incorporated data from two study stages: the intensive sampling stage, followed by a sparse sampling stage (Fig. S1). In the first stage, the sampling time points were scheduled at pre-dose, 1, 2, 4, 8 h (if feasible) and 16 h (if feasible) following the most recent dose (the sixth administration after the first dose). The optimal sparse sampling design was then conducted to minimize the number of sampling points based on the defined constraint conditions. The designed sparse sampling time windows were pre-dose (0–1 h), 0.5–1.5, 6–7, and 23–24 h after the prior dose (the sixth administration after the first dose). The detailed optimal design process was described in the Supplemental material.
The PopPK model was developed using the non-linear mixed-effects modeling software NONMEM (version 7.5, ICON Development Solutions, Ellicott City, Maryland) with the first-order conditional estimation with interaction (FOCE-I) algorithm. […]

[2] = tested on: positive fungal culture (C. parapsilosis, C. albicans, C. tropicalis, C. guilliermondii); experiment: Fungal culture conversion during caspofungin therapy; type: in vivo, human (critically ill children); settings: thirteen patients with positive fungal culture during caspofungin infusion
Procedure: as §1, with “The biochemical measurements were derived from the most recent clinical laboratory results available within 7 days prior to the first caspofungin administration, reflecting the patient’s baseline physiological status.” left out

[3] = First-stage population pharmacokinetic model from intensive sampling (n = 14), used for optimal sampling design; type: in vivo, human (critically ill children)
Procedure: as §2
During the optimized sampling process, explicit constraint conditions were defined. In the second phase of our study, approximately 40 participants were to be recruited to receive a daily 1-hour intravenous infusion of caspofungin, with a BSA-based dosing strategy. Sampling was planned to take place within one single day after reaching steady-state levels. Given that the study subjects were pediatric patients, we aimed to minimize the number of sampling points.
Design software tools, including $DESIGN option in NONMEM and PopED (version 0.6.0, R package), were utilized to explore design elements such as sampling size, and sampling times. These tools evaluated uncertainties in PK parameter estimates based on the current sampling scheme and population pharmacokinetic (PPK) model. The designs were evaluated to ensure the precise estimation of typical PK parameters, defined as a relative standard error (RSE) of less than 50%.
Figure S1. Study flow diagram. In the first stage of the study, a population pharmacokinetic model was developed based on intensive sampling data collected from the prospective clinical study conducted among pediatrics with a small sample size in ICU. Secondly, design software tools, including $DESIGN in NONMEM and PopED, were utilized to optimize sampling design. During the third phase in our study, the optimized sampling scheme would be applied to a larger-scale study.

[4] = cited from earlier work
Description: Our results are consistent with three published pediatric PopPK studies that also employed a two-compartment model ([25][–][27]). In contrast, one other pediatric study employed a one-compartment model, probably due to its sparse PK data (48 subjects and 139 observations) ([28]). […] The b ... || Previous studies involving pediatric populations typically included body size on PK parameters. Among them, three studies ([25], [26], [28]) included BSA as a significant covariate on CL and V1 while one study ([27]) emphasized the effect of body weight. In our study, allometric BSA-based allometric scaling yielded lower OFV and AIC compared with weight, LBW, and FFM. The estimated BSA exponent for CL varied considerably across studies, likely reflecting differences in study populations.

[5] = published pediatric PK estimates

CC[C@H](C)C[C@H](C)CCCCCCCCC(=O)N[C@H]1C[C@@H](O)[C@@H](NCCN)NC(=O)[C@@H]2[C@@H](O)CCN2C(=O)[C@H]([C@H](O)CCN)NC(=O)[C@H]([C@H](O)[C@@H](O)c2ccc(O)cc2)NC(=O)[C@@H]2C[C@@H](O)CN2C(=O)[C@H]([C@@H](C)O)NC1=O [caspofungin]
AUCss,24h, range ([1]; ECMO group, n = 4): 17.20 to 176.04 µg·h/mL
AUCss,24h, range ([1]; non-ECMO group, n = 25): 53.18 to 380.95 µg·h/mL
Increase in V1 associated with ECMO ([1]; final PopPK model): 18.2 fold
Q (inter-compartment exchange rate), estimate ([1]; final PopPK model): 1.01 L/h
V2 (peripheral volume), estimate ([1]; final PopPK model): 1.63 L
V2, bootstrap (n = 1,000) median [95% CI] ([1]; final PopPK model, bootstrap n = 1,000): 1.89 [1.20–4.29] L
V1 (volume of the central compartment), estimate ([1]; final PopPK model, scaled to 0.79 m^2 (BSA exponent 1), without ECMO): 2.22 L
AUC(0-t) ([1]; human, ECMO group, n = 4): 117 µg·h/mL
AUC(0-t) ([1]; human, non-ECMO group, n = 25): 194 µg·h/mL
clearance ([1]; human, final PopPK model, typical value scaled to a 0.79 m^2 individual (BSA exponent 0.66), 1-h iv infusion once daily, total plasma, LC-MS/MS, n = 29, read-out: CL, estimate (converted)): 3.27 mL/min
BSA-normalized CL ([1]; this study, final PopPK model): 0.248 L/h/m^2
BSA-normalized V1 ([1]; this study, final PopPK model): 2.81 L/m^2
Elimination rate constant (ke) ([1]; this study, final PopPK model): 0.088 h⁻¹
Culture conversion in patients with positive fungal culture [2]: all of them eventually achieved successful culture conversion to negative
The effect of AST on Q, final estimate ([3]; exponent on AST/52.5): 0.898
clearance ([3]; human, plasma, iv, n = 14, CL = 0.477 x (weight/70)^0.75, read-out: CL, final estimate (converted)): 7.95 mL/min
Q, final estimate ([3]; n = 14, Q = 0.512 x (weight/70)^0.75 x (AST/52.5)^0.898): 0.512 L/h
V1, final estimate ([3]; n = 14, V1 = 11.8 x (weight/70)^1): 11.8 L
V2, final estimate ([3]; n = 14, V2 = 19.2 x (weight/70)^1): 19.2 L
Elimination rate constant (ke), median ([4]; other four pediatric studies): 0.0875 h⁻¹
Elimination rate constant (ke), range ([4]; other four pediatric studies): 0.074 to 0.101 h⁻¹
BSA-normalized clearance, median [4, 5]: 0.208 L/h/m^2
BSA-normalized clearance, range [4, 5]: 0.126–0.21 L/h/m^2
BSA-normalized volume of distribution (V1), median [4, 5]: 2.19 L/m^2
BSA-normalized volume of distribution (V1), range [4, 5]: 1.72–2.62 L/m^2
